IC50 data for 16 compounds are collected here from ChEMBL document CHEMBL1131437, “Resistance-modifying agents. 5. Synthesis and biological properties of quinazolinone inhibitors of the DNA repair enzyme poly(ADP-ribose) polymerase (PARP)” (J Med Chem, 1998).

The target of this assay is Poly [ADP-ribose] polymerase 1 (Mus musculus, UniProt P11103). Description: biochemical.
Poly [ADP-ribose] polymerase 1, sequence (P11103 whole entry): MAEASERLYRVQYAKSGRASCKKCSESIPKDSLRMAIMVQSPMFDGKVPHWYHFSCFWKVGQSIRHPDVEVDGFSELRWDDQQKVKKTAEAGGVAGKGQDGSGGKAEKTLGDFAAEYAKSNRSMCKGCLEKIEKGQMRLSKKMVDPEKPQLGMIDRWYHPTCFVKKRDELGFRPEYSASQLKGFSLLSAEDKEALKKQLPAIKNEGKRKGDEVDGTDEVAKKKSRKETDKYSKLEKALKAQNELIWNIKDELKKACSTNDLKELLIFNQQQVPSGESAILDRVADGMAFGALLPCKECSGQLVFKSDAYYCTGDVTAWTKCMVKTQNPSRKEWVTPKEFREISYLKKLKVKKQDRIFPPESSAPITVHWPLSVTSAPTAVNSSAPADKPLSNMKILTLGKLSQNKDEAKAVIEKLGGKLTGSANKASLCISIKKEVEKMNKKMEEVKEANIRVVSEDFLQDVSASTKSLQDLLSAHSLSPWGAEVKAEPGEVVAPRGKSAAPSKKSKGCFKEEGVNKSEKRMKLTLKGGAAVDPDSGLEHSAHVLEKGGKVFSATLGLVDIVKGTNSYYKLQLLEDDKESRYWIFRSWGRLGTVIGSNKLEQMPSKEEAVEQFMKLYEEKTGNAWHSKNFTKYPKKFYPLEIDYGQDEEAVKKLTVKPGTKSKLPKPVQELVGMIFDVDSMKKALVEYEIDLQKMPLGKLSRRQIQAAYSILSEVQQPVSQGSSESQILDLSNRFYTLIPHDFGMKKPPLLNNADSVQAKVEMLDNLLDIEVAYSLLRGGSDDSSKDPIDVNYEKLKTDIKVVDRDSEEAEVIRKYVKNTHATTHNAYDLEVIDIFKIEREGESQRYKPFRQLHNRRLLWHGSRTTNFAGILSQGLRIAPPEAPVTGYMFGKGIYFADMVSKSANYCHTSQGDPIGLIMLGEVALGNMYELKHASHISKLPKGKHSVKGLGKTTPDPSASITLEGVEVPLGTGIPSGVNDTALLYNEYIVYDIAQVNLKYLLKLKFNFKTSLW
Description: Inhibition of the DNA repair Poly (ADP-ribose) polymerase 1, in permeabilised L1210 murine leukemia cells
Regarding `Cc1cccc2c(O)nc(-c3ccc(C#N)cc3)nc12`, the midpoint of inhibition, the IC50, lay at 270 nM.

Turning to `COc1cccc2c(O)nc(-c3ccc(C(F)(F)F)cc3)nc12`, the IC50 (commonly the midpoint of a concentration-inhibition curve) is 39000 nM. `Cc1cccc2c(=O)[nH]c(-c3ccccc3)nc12` came in with an IC50 of 870 nM. `COc1cccc2c(O)nc(-c3ccc([N+](=O)[O-])cc3)nc12` came in with an IC50 of 850 nM. As for `Cc1cccc2c(=O)[nH]c(-c3ccc(O)cc3)nc12`, the IC50 was 220 nM. The compound `Nc1ccc(-c2nc(O)c3cccc(O)c3n2)cc1` came in with an IC50 of 320 nM. The compound `COc1ccc(-c2nc3c(C)cccc3c(=O)[nH]2)cc1` came in with an IC50 of 190 nM. `COc1cccc2c(=O)[nH]c(-c3ccc(N=[N+]=[N-])cc3)nc12` had an IC50 of 1930 nM.

The compound `COc1cccc2c(=O)n(C)c(C)nc12` showed an IC50 greater than 100000 nM. As for `Cc1nc(O)c2cccc(C)c2n1`, inhibition was half-maximal at 390 nM (IC50). On to `COc1cccc2c(O)nc(-c3ccc(N)cc3)nc12`, for which the IC50 was greater than 300 nM. In turn, `Cc1nc2c(O)cccc2c(=O)n1C` came in with an IC50 greater than 100000 nM. `COc1cccc2c(O)nc(-c3ccc(C#N)cc3)nc12` came in with an IC50 of 1340 nM. As to `Cc1cccc2c(O)nc(-c3ccc(C(F)(F)F)cc3)nc12`, the IC50 was greater than 10000 nM.

As to `Cc1cccc2c(O)nc(-c3ccc(N)cc3)nc12`, the IC50 is 440 nM. As to `NC(=O)c1cccc(N)c1` [3-AMINOBENZAMIDE], it took 19100 nM to reach half-maximal inhibition (IC50).
